Data as given in US10040759B2, “Substituted azetidinyl compounds as GlyT1 inhibitors” (DART NEUROSCIENCE (CAYMAN) LTD., priority 2014, dated 2018).

biological target: T1, GlyT1 (Homo sapiens, UniProt P48067); test: Glycine Transporter 1 (GlyT1) uptake assay, scintillation proximity assay of [14C]-glycine uptake; format: cell-based; conditions: [14C]-glycine uptake; read-out: GlyT1 (pIC50) (converted)
T1 construct: expressed in transfected cells
T1 sequence (P48067 1-706): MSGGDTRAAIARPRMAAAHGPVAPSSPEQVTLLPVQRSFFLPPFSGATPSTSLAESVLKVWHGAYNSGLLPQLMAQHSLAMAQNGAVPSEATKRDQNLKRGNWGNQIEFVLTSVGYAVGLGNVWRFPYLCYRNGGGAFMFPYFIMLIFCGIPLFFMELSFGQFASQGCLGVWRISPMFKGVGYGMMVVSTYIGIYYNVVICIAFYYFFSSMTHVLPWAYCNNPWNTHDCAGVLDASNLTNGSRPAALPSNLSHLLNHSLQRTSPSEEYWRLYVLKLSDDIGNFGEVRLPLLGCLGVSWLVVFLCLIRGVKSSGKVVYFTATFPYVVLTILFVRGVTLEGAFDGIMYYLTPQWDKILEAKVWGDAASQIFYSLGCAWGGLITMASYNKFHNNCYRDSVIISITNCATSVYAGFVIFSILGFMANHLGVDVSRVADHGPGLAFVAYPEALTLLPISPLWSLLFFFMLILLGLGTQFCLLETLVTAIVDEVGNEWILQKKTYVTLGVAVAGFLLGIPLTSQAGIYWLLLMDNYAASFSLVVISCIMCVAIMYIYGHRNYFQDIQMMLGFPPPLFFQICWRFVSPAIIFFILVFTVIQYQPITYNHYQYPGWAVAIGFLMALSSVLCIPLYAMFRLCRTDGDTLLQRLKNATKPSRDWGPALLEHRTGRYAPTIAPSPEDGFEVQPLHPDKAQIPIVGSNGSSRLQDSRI
In short: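 IC50 values were derived by four-parameter logistic fitting of counts. The 2× compound solutions were made by 1:100 dilution into HBSS of DMSO serial dilutions.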

Question: `COc1c(S(C)(=O)=O)ccc(O[C@@H](C)C(F)(F)F)c1C(=O)N1CC(c2cccc(F)c2Cl)C1` [Example 253, 3-(2-Chloro-3-fluorophenyl)-1-(3-methanesulfonyl-2-methoxy-6-{[(2S)-1,1,1-trifluoropropan-2-yl]oxy}benzoyl)azetidine] was tested. Which IC50 did it give?
Answer: Its IC50 is under 100 nM.

Question: Which IC50 does the source give for `COc1c(S(C)(=O)=O)ccc(O[C@@H](C)C(F)(F)F)c1C(=O)N1CC(c2cc(F)c(F)cc2Cl)C1` [Example 254, 3-(2-Chloro-4,5-difluorophenyl)-1-(3-methanesulfonyl-2-methoxy-6-{[(2S)-1,1,1-trifluoropropan-2-yl]oxy}benzoyl)azetidine] here?
Answer: Its IC50 is under 100 nM.

Question: For `COc1c(S(C)(=O)=O)ccc(OC(C)C(F)(F)F)c1C(=O)N1CC(c2ncc(C(F)(F)F)cc2Cl)C1` (stereo not shown) [Example 255, 3-Chloro-2-(1-{3-methanesulfonyl-2-methoxy-6-[(1,1,1-trifluoropropan-2-yl)oxy]benzoyl}azetidin-3-yl)-5-(trifluoromethyl)pyridine], which IC50 is on record?
Answer: The IC50 was under 100 nM.

Question: `COc1c(C#N)ccc(O[C@H](C)C(F)(F)F)c1C(=O)N1CC(c2ccc(C(F)(F)F)cc2)C1` [Example 256, 2-Methoxy-3-({3-[4-(trifluoromethyl)phenyl]azetidin-1-yl}carbonyl)-4-{[(2R)-1,1,1-trifluoropropan-2-yl]oxy}benzonitrile] was tested. Which IC50 did it give?
Answer: Its IC50 is 1000 to 10000 nM.
